T/C data for 18 molecules are collected here from PubChem BioAssay AID328 (DTP/NCI, 2004).

The test system of the assay is BDF1 mice, P388 leukemia ip, median survival T/C. The experiment in a line: NCI In Vivo Anticancer Drug Screen. Data for tumor model P388 Leukemia (intraperitoneal) in B6D2F1 (BDF1) mice. As to conditions: endpoint: median survival time, higher = longer survival. Put shortly: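 Compound-treated tumour-bearing mice were compared with vehicle-treated controls. Survival was recorded, and the value is the treated-group measurement divided by the control-group measurement (T/C).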

Where [1] appears, read: dose: 100.0 mg/kg/injection, schedule: Q04DX003 (ip), vehicle: saline with Tween-80.
The mark [2] stands for this setting: dose: 200.0 mg/kg/injection, schedule: Q04DX003 (ip), vehicle: saline with Tween-80.
Where [3] appears, read: dose: 400.0 mg/kg/injection, schedule: Q04DX003 (ip), vehicle: saline with Tween-80.
Where [4] appears, read: dose: 100.0 mg/kg/injection, schedule: Q04DX003 (ip), vehicle: saline.
Where [5] appears, read: dose: 100.0 mg/kg/injection, schedule: Q01DX009 (ip), vehicle: saline.
Setting [6] is: dose: 200.0 mg/kg/injection, schedule: Q04DX003 (ip), vehicle: saline.
The mark [7] stands for this setting: dose: 400.0 mg/kg/injection, schedule: Q04DX003 (ip), vehicle: saline.
Where [8] appears, read: dose: 12.5 mg/kg/injection, schedule: Q01DX009 (ip), vehicle: saline.
Setting [9] is: dose: 25.0 mg/kg/injection, schedule: Q01DX009 (ip), vehicle: saline.
The mark [10] stands for this setting: dose: 25.0 mg/kg/injection, schedule: Q01DX009 (ip), vehicle: saline with Tween-80.
The mark [11] stands for this setting: dose: 50.0 mg/kg/injection, schedule: Q01DX009 (ip), vehicle: saline with Tween-80.
Where [12] appears, read: dose: 100.0 mg/kg/injection, schedule: Q01DX009 (ip), vehicle: saline with Tween-80.
The mark [13] stands for this setting: dose: 200.0 mg/kg/injection, schedule: Q01DX009 (ip), vehicle: saline with Tween-80.
[14] abbreviates: dose: 400.0 mg/kg/injection, schedule: Q01DX009 (ip), vehicle: saline with Tween-80.
Setting [15] is: dose: 100.0 mg/kg/injection, schedule: Q04DX003 (ip), vehicle: Klucel (hydroxypropylcellulose) (HPC).
Setting [16] is: dose: 200.0 mg/kg/injection, schedule: Q04DX003 (ip), vehicle: Klucel (hydroxypropylcellulose) (HPC).
[17] abbreviates: dose: 400.0 mg/kg/injection, schedule: Q04DX003 (ip), vehicle: Klucel (hydroxypropylcellulose) (HPC).

Where “and” joins values, the source holds several entries; their conditions need not be identical. Equal values may be shown once. Toxic doses and inconclusive results are not listed.

As for `Nc1nc(SCC(=O)c2ccccc2)c2[nH]cnc2n1`, the T/C runs as follows: (dose: 100.0 mg/kg/injection, schedule: Q01DX009 (ip), vehicle: saline sonified) 115 % of control; under setting [1], 109 % of control; (dose: 200.0 mg/kg/injection, schedule: Q01DX009 (ip), vehicle: saline sonified) 110 % of control; under setting [2], 113 % of control; (dose: 400.0 mg/kg/injection, schedule: Q01DX009 (ip), vehicle: saline sonified) 110 % of control; under setting [3], 118 % of control.

As to `C1CC[N-]CC1.C1CC[N-]CC1.O=C(CC(=O)C(F)(F)F)C(F)(F)F.O=C(CC(=O)C(F)(F)F)C(F)(F)F.[Ni+2]`, the T/C is, setting by setting: (dose: 25.0 mg/kg/injection, schedule: Q04DX003 (ip), vehicle: saline) 104 % of control; (dose: 50.0 mg/kg/injection, schedule: Q04DX003 (ip), vehicle: saline) 108 % of control; under setting [4], 104 % of control.

Take `CN(C)C(=O)NNC(=O)N(C)C`: the T/C under setting [5] is 104 % of control; the T/C under setting [4] was 100 % of control; the T/C (dose: 200.0 mg/kg/injection, schedule: Q01DX009 (ip), vehicle: saline) is 95 % of control; the T/C under setting [6] was 100 % of control; the T/C (dose: 400.0 mg/kg/injection, schedule: Q01DX009 (ip), vehicle: saline) is 95 % of control; the T/C under setting [7] was 100 % of control.

For the molecule `COC(=O)c1ccccc1NC(=O)C(Cl)Cl`, the T/C is 95 % of control (dose: 75.0 mg/kg/injection, schedule: Q04DX003 (ip), vehicle: olive oil, sesame oil, peanut oil); 95 % of control (dose: 100.0 mg/kg/injection, schedule: Q01DX001 (ip), vehicle: olive oil, sesame oil, peanut oil); 95 % of control (dose: 150.0 mg/kg/injection, schedule: Q04DX003 (ip), vehicle: olive oil, sesame oil, peanut oil); 90 % of control (dose: 200.0 mg/kg/injection, schedule: Q01DX001 (ip), vehicle: olive oil, sesame oil, peanut oil); 100 % of control (dose: 300.0 mg/kg/injection, schedule: Q04DX003 (ip), vehicle: olive oil, sesame oil, peanut oil); 100 % of control (dose: 400.0 mg/kg/injection, schedule: Q01DX001 (ip), vehicle: olive oil, sesame oil, peanut oil).

As for `CCN(CC)CCNc1ccc(C)c2sc3ccccc3c(=O)c12`, the T/C is 97 % of control under setting [8]; 109 % of control under setting [9]; 150 % of control and 170 % of control (dose: 50.0 mg/kg/injection, schedule: Q01DX010 (ip), vehicle: saline); 158 % of control under setting [5]; 90 % of control (dose: 100.0 mg/kg/injection, schedule: Q01DX010 (ip), vehicle: saline).

Turning to `C=CC(=O)NCCCCC(N)C(=O)O` (stereo not given), the T/C (dose: 12.5 mg/kg/injection, schedule: Q01DX009 (ip), vehicle: saline with Tween-80) is 108 % of control; the T/C under setting [10] is 106 % of control; the T/C under setting [11] was 113 % of control.

Consider `CCOc1nc(=O)n(CC(=O)c2ccc(Cl)s2)cc1F`, for which the T/C under setting [11] is 114 % of control; the T/C under setting [12] is 103 % of control; the T/C under setting [1] is 110 % of control; the T/C under setting [13] was 99 % of control; the T/C under setting [2] is 111 % of control; the T/C under setting [14] was 87 % of control. For the same molecule, under setting [3], the T/C was 104 % of control.

`CC(C)C1=CC2=CC[C@@H]3[C@](C)(CCC[C@@]3(C)C(=O)O)[C@H]2CC1`: the T/C is 100 % of control under setting [12]; 100 % of control under setting [1]; 100 % of control under setting [13]; 100 % of control under setting [2]; 100 % of control under setting [14]; 100 % of control under setting [3].

Turning to `CN1CCC2(CC1)c1ccccc1-c1ccccc12`, the T/C reads like this: under setting [11], 109 % of control; under setting [12], 100 % of control.

In the case of `CCN(CC)CCOC(=O)CSC1C2CC3C(C2)C31` (stereo not given), the T/C reads like this: (dose: 50.0 mg/kg/injection, schedule: Q01DX009 (ip), vehicle: suspension in saline) 106 % of control; (dose: 100.0 mg/kg/injection, schedule: Q01DX001 (ip), vehicle: suspension in saline) 93 % of control; (dose: 100.0 mg/kg/injection, schedule: Q01DX009 (ip), vehicle: suspension in saline) 107 % of control; (dose: 200.0 mg/kg/injection, schedule: Q01DX001 (ip), vehicle: suspension in saline) 101 % of control; (dose: 200.0 mg/kg/injection, schedule: Q01DX009 (ip), vehicle: suspension in saline) 109 % of control; (dose: 400.0 mg/kg/injection, schedule: Q01DX001 (ip), vehicle: suspension in saline) 102 % of control. In addition, the T/C by setting is: (dose: 400.0 mg/kg/injection, schedule: Q01DX009 (ip), vehicle: suspension in saline) 111 % of control; (dose: 600.0 mg/kg/injection, schedule: Q01DX001 (ip), vehicle: suspension in saline) 105 % of control.

Take `COC(=O)CCN(c1ccccc1)S(=O)(=O)c1ccc(C)cc1`: the T/C was 104 % of control (dose: 100.0 mg/kg/injection, schedule: Q01DX009 (ip), vehicle: Klucel (hydroxypropylcellulose) (HPC)); 100 % of control under setting [15]; 104 % of control (dose: 200.0 mg/kg/injection, schedule: Q01DX009 (ip), vehicle: Klucel (hydroxypropylcellulose) (HPC)); 100 % of control under setting [16]; 95 % of control (dose: 400.0 mg/kg/injection, schedule: Q01DX009 (ip), vehicle: Klucel (hydroxypropylcellulose) (HPC)); 100 % of control under setting [17].

For the molecule `CNC(=O)NC1C(O)COC(OC)C1O` (stereo not given), the T/C runs as follows: (dose: 150.0 mg/kg/injection, schedule: Q01DX001 (ip), vehicle: saline) 104 % of control; (dose: 300.0 mg/kg/injection, schedule: Q01DX001 (ip), vehicle: saline) 109 % of control.

For `CC(O)C(C)(C)CO` (stereo not given), the T/C by setting is: under setting [4], 100 % of control; under setting [6], 100 % of control; under setting [7], 100 % of control.

With `CNC1C(O)C(NC)C2OC3(O)C(=O)CC(C)OC3OC2C1O` (stereo not given), the T/C was 112 % of control (dose: 6.25 mg/kg/injection, schedule: Q01DX009 (ip), vehicle: saline); 106 % of control under setting [8]; 97 % of control under setting [9]; 106 % of control (dose: 50.0 mg/kg/injection, schedule: Q01DX009 (ip), vehicle: saline).

In the case of `COc1cc2cc(c1Cl)NC(=O)CC(OC(=O)C(C)N(C)C(C)=O)C1(C)OC1C(C)C1CC(O)(NC(=O)O1)C(OC)C=C/C=C(\C)C2` (stereo not given), the T/C was 120 % of control (dose: 0.1 micrograms/kg/injection, schedule: Q01DX009 (ip), vehicle: saline + alcohol); 110 % of control (dose: 0.2 micrograms/kg/injection, schedule: Q01DX009 (ip), vehicle: saline + alcohol); 115 % of control (dose: 0.4 micrograms/kg/injection, schedule: Q01DX009 (ip), vehicle: saline + alcohol); 110 % of control (dose: 0.8 micrograms/kg/injection, schedule: Q01DX009 (ip), vehicle: saline + alcohol); 170 % of control (dose: 6.2 micrograms/kg/injection, schedule: Q01DX009 (ip), vehicle: saline + alcohol); 120 % of control (dose: 12.5 micrograms/kg/injection, schedule: Q01DX009 (ip), vehicle: saline + alcohol). In addition, the T/C was 185 % of control (dose: 25.0 micrograms/kg/injection, schedule: Q01DX009 (ip), vehicle: saline + alcohol) and 120 % of control (dose: 50.0 micrograms/kg/injection, schedule: Q01DX009 (ip), vehicle: saline + alcohol).

In the case of `CCOC(=O)Cn1c(=S)sc2ccccc21`, the T/C under setting [10] was 114 % of control; the T/C under setting [11] was 98 % of control and 114 % of control; the T/C under setting [12] is 95 % of control and 120 % of control; the T/C under setting [13] is 93 % of control and 100 % of control.

For `CCCCCCCCCC(O)CCC` (stereo not given), the T/C by setting is: under setting [15], 95 % of control; under setting [16], 95 % of control; under setting [17], 95 % of control.

As to `CN1CCC2=C(C1)C(N1CCCC1)CS(=O)(=O)O2` (stereo not given), the T/C (dose: 12.5 mg/kg/injection, schedule: Q04DX002 (ip), vehicle: saline) was 100 % of control; the T/C (dose: 25.0 mg/kg/injection, schedule: Q04DX002 (ip), vehicle: saline) is 102 % of control; the T/C (dose: 50.0 mg/kg/injection, schedule: Q04DX002 (ip), vehicle: saline) was 99 % of control.
